Measurements from patent US12030879B2, “Sulfonyl acetamides as NLRP3 inhibitors” (Inflazome Limited, priority 2018, dated 2024).

Target: T1, NLRP3 (Homo sapiens, UniProt Q96P20)
T1 construct: Seed THP-1 cells (25,000 cells/well) containing 1.0 μg/ml LPS in 40 μl of RPMI medium; host or cells: THP-1 cells
Assay: THP-1 cells pyroptosis assay
Type: cell-based
Conditions: LPS 1 μg/ml, compound 3 hrs, nigericin 5 μM 1 hr, resazurin readout
In short: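 LPS-primed (1 μg/ml) THP-1 cells in serum-free RPMI were treated 3 h with compound (8-point half-log, top 10 μM; 0.1% DMSO), then with 5 μM nigericin for 1 h at 37°C. Viability was read by 100 μM resazurin (ex 560/em 590 nm) after 1–2 h. IC50 came from 4-parameter nonlinear regression.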

T1 sequence (Q96P20 whole entry): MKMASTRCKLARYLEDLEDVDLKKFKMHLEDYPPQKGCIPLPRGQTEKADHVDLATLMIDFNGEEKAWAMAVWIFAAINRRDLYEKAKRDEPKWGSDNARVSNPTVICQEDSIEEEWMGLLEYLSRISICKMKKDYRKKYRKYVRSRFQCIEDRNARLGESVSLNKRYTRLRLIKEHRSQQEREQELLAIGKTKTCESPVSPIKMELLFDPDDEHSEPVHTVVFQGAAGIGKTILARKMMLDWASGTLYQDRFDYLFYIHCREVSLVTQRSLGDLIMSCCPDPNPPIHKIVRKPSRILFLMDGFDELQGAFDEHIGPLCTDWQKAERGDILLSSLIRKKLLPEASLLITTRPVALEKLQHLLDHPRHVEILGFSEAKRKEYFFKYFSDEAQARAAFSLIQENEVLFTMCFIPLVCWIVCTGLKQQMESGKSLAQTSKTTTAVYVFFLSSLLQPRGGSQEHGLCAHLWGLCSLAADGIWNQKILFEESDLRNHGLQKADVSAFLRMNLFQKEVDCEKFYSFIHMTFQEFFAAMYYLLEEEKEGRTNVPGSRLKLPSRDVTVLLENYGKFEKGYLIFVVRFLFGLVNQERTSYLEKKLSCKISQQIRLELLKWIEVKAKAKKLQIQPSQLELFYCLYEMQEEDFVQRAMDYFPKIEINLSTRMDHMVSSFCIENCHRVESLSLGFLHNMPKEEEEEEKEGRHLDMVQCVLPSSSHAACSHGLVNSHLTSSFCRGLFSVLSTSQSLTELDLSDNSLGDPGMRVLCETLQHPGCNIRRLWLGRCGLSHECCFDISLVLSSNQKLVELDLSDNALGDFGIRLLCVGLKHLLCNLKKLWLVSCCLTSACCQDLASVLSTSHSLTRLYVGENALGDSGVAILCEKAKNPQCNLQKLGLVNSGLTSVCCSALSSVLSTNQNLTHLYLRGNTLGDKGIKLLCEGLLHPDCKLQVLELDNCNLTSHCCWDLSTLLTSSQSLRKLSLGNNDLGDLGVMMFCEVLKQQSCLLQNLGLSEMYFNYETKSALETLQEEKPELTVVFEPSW

| Structure (SMILES) | IC50 [nM] |
| --- | --- |
| COc1cc(-c2ccc3c(c2CC(=O)NS(=O)(=O)c2ccc(C(C)(C)O)cc2C)CCC3)ccn1 [Example 85, N-((4-(2-Hydroxypropan-2-yl)-2-methylphenyl)sulfonyl)-2-(5-(2-methoxypyridin-4-yl)-2,3-dihydro-1H-inden-4-yl)acetamide] | ≤ 500 |
| COc1cc(-c2cc(F)cc(C(C)C)c2CC(=O)NS(=O)(=O)c2c(C)nn(CC(C)C)c2C)ccn1 [Example 172] | ≤ 5000 |
| COc1cc(-c2cc(F)cc(C(C)C)c2CC(=O)NS(=O)(=O)c2cn(C(C)C)nc2C)ccn1 [Example 173] | ≤ 500 |
| COc1cc(-c2cc(F)cc(C(C)C)c2CC(=O)NS(=O)(=O)c2c(C)nn(CC(F)F)c2C)ccn1 [Example 175] | ≤ 5000 |
| COC(=O)c1cc(S(=O)(=O)NC(=O)Cc2c(-c3ccnc(OC)c3)cc(F)cc2C(C)C)sc1C [Example 176] | ≤ 500 |
| COc1cc(-c2cc(F)cc(C(C)C)c2CC(=O)NS(=O)(=O)c2cc(Br)c(Cl)cc2C)ccn1 [Example 178] | ≤ 1000 |
| Cc1cc(C(C)(C)O)ccc1S(=O)(=O)NC(=O)Cc1c(-c2ccncc2)cc(F)cc1C(C)C [Example 186] | ≤ 500 |
| COc1cc(-c2cc(F)cc(C(C)C)c2CC(=O)NS(=O)(=O)c2nc(C)cc(C)n2)ccn1 [Example 188] | ≤ 10000 |
| Cc1cc(C(C)(C)O)ccc1S(=O)(=O)NC(=O)Cc1c(-c2ccnc(C#N)c2)ccc2c1CCC2 [Example 189] | ≤ 500 |
| COCC(C)(C)n1ccc(S(=O)(=O)NC(=O)Cc2c(-c3ccnc(OC)c3)cc(F)cc2C(C)C)n1 [Example 194] | ≤ 5000 |
| COc1cc(-c2cc(F)cc(C(C)C)c2CC(=O)NS(=O)(=O)c2cc(C(C)(C)O)n(C(C)C)n2)ccn1 [Example 196] | ≤ 10000 |
| COc1cc(-c2cc(F)cc(C(C)C)c2CC(=O)NS(=O)(=O)c2cc(C(C)(C)O)n(C)n2)ccn1 [Example 197] | ≤ 5000 |
| CCC(O)(CC)c1cc(S(=O)(=O)NC(=O)Cc2c(-c3ccnc(OC)c3)cc(F)cc2C(C)C)sc1C [Example 199] | ≤ 500 |
| CC(C)c1cc(S(=O)(=O)NC(=O)Cc2c(-c3cccnc3)cc(F)cc2C(C)C)c(F)cc1F [Example 200] | ≤ 500 |
| CC(C)c1cc(S(=O)(=O)NC(=O)Cc2c(-c3ccncc3)cc(F)cc2C(C)C)c(F)cc1F [Example 201] | ≤ 500 |
| Cc1nc(C(C)C)c(CC(=O)NS(=O)(=O)c2cc(C(C)C)c(F)cc2F)n1-c1ccncc1 [Example 202] | ≤ 5000 |
| COc1ccncc1-c1cc(F)cc(C(C)C)c1CC(=O)NS(=O)(=O)c1cc(C(C)C)c(F)cc1F [Example 203] | ≤ 500 |
| COc1cc(-c2ccc3c(c2CC(=O)NS(=O)(=O)c2cc(C(C)C)c(F)cc2F)CCC3)ccn1 [Example 204] | ≤ 5000 |

The remaining lines, values ahead:

| IC50 [nM] | Structure (SMILES) |
| --- | --- |
| ≤ 1000 | COc1cc(-c2cc(F)cc(C(C)C)c2CC(=O)NS(=O)(=O)c2ccc(C(C)C)cc2)ccn1 [Example 110, 2-(4-Fluoro-2-isopropyl-6-(2-methoxypyridin-4-yl)phenyl)-N-((4-isopropylphenyl)sulfonyl)acetamide] |
| ≤ 500 | COc1cc(-c2cc(F)cc(C(C)C)c2CC(=O)NS(=O)(=O)c2cc(C(C)(C)O)ccn2)ccn1 [Example 170] |
| ≤ 5000 | COc1cc(-c2cc(F)cc(C(C)C)c2CC(=O)NS(=O)(=O)c2ccc(C(C)(C)O)nc2)ccn1 [Example 171] |
| ≤ 500 | COc1cc(-c2cc(F)cc(C(C)C)c2CC(=O)NS(=O)(=O)c2cc(C(=O)N(C)C)c(C)s2)ccn1 [Example 174] |
| ≤ 5000 | COc1cc(-c2cc(F)cc(C(C)C)c2CC(=O)NS(=O)(=O)c2ccc(CCN(C)C)cc2)ccn1 [Example 177] |
| ≤ 500 | CCC(C)(O)c1ccc(S(=O)(=O)NC(=O)Cc2c(-c3ccnc(OC)c3)cc(F)cc2C(C)C)cc1F (centres unmarked) [Example 179] |
| ≤ 5000 | COc1cc(-c2cc(F)cc(C(C)C)c2CC(=O)NS(=O)(=O)c2cccc(CN(C)C)c2)ccn1 [Example 180] |
| ≤ 500 | COc1cc(-c2cc(F)cc(C(C)C)c2CC(=O)NS(=O)(=O)c2ccnc(C(C)(C)O)c2)ccn1 [Example 181] |
| ≤ 10000 | CNC(=O)c1ccc(S(=O)(=O)NC(=O)Cc2c(-c3ccnc(OC)c3)cc(F)cc2C(C)C)c(C)c1 [Example 182] |
| ≤ 1000 | COc1cc(-c2cc(F)cc(C(C)C)c2CC(=O)NS(=O)(=O)c2cc(Br)cs2)ccn1 [Example 183] |
| ≤ 1000 | COc1cc(-c2cc(F)cc(C(C)C)c2CC(=O)NS(=O)(=O)c2ccc(-c3cnco3)cc2)ccn1 [Example 184] |
| ≤ 500 | COc1cc(-c2cc(F)cc(C(C)C)c2CC(=O)NS(=O)(=O)c2ccc(C(C)C)cn2)ccn1 [Example 185] |
| ≤ 5000 | COc1cc(-c2cc(F)cc(C(C)C)c2CC(=O)NS(=O)(=O)c2ccc(CC#N)cc2)ccn1 [Example 187] |
| ≤ 5000 | COc1cc(-c2cc(F)cc(C(C)C)c2CC(=O)NS(=O)(=O)c2ccc(C(C)(C)C#N)cc2)ccn1 [Example 190] |
| ≤ 1000 | COc1cc(-c2cc(F)cc(C(C)C)c2CC(=O)NS(=O)(=O)c2cncc(N(C)C)n2)ccn1 [Example 191] |
| ≤ 5000 | COc1cc(-c2cc(F)cc(C(C)C)c2CC(=O)NS(=O)(=O)c2ccn(C(C)(C)CN(C)C)n2)ccn1 [Example 192] |
| ≤ 5000 | COc1cc(-c2cc(F)cc(C(C)C)c2CC(=O)NS(=O)(=O)c2cnn(CC(C)(C)O)c2)ccn1 [Example 193] |
| ≤ 5000 | COc1cc(-c2cc(F)cc(C(C)C)c2CC(=O)NS(=O)(=O)c2ccn(C(C)(C)CO)n2)ccn1 [Example 195] |
| ≤ 500 | COc1cc(-c2cc(F)cc(C(C)C)c2CC(=O)NS(=O)(=O)c2cncc(C(C)(C)O)c2)ccn1 [Example 198] |
| ≤ 500 | COc1cc(-c2cc(F)cc(C(C)C)c2CC(=O)NS(=O)(=O)c2cc(C(C)C)cs2)ccn1 [Example 205] |
| ≤ 500 | COc1cc(-c2cc(F)cc(C(C)C)c2CC(=O)NS(=O)(=O)c2cc(C(C)C)ccc2C)ccn1 [Example 206] |
| ≤ 1000 | CCCn1cc(S(=O)(=O)NC(=O)Cc2c(-c3ccnc(OC)c3)cc(F)cc2C(C)C)c(C)n1 [Example 207] |
| ≤ 5000 | COc1cc(-c2cc(F)cc(C(C)C)c2CC(=O)NS(=O)(=O)c2cn(CC(C)C)nc2C)ccn1 [Example 208] |
| ≤ 500 | C=C(C)c1ccc(C)c(S(=O)(=O)NC(=O)Cc2c(-c3ccnc(OC)c3)cc(F)cc2C(C)C)c1 [Example 209] |

Tested on: not listed separately
Assay: PK protocol, intravenous administration in rats
Type: in vivo
Conditions: rat, plasma, male Sprague Dawley rats, 1 mg/kg
Protocol: Pharmacokinetic parameters were determined in male Sprague Dawley rats (Vital River Laboratory Animal Technology Co Ltd, Beijing, China, 7-9 weeks old). Animals were group housed during the study and maintained under a 12 h light/dark cycle.
For intravenous administration, compounds were formulated as a solution in DMSO:PBS [10:90] in 2 mL/kg dosing volume and administered via tail vein.
Serial blood samples (about 200 μL) were taken from each animal at each of 8 time-points post dose (0.083, 0.25, 0.5, 1, 2, 4, 8 and 24 h). Samples were held on ice for no longer than 30 minutes before centrifugation (5,696 rpm (3,000 g) for 15 minutes) for plasma generation. Plasma was frozen on dry ice prior to bioanalysis. PK parameters were generated from LC-MS/MS data using Phoenix WinNonlin 6.3 software.

| Structure (SMILES) | AUC [ng·h/mL] | clearance [mL/min/kg] | half-life [h] |
| --- | --- | --- | --- |
| COc1cc(-c2ccc3c(c2CC(=O)NS(=O)(=O)c2ccc(C(C)(C)O)cc2C)CCC3)ccn1 [Example 85, N-((4-(2-Hydroxypropan-2-yl)-2-methylphenyl)sulfonyl)-2-(5-(2-methoxypyridin-4-yl)-2,3-dihydro-1H-inden-4-yl)acetamide] | 926 | 29.1 | 19.8 |
| COc1cc(-c2cc(F)cc(C(C)C)c2CC(=O)NS(=O)(=O)c2ccc(C(C)C)cc2)ccn1 [Example 110, 2-(4-Fluoro-2-isopropyl-6-(2-methoxypyridin-4-yl)phenyl)-N-((4-isopropylphenyl)sulfonyl)acetamide] | 1260 | 13.3 | 7.2 |

Same assay, conditions: rat, plasma, male Sprague Dawley rats, 1 mg/kg, read-out: Vdss

| Structure (SMILES) | Vd [L/kg] |
| --- | --- |
| COc1cc(-c2ccc3c(c2CC(=O)NS(=O)(=O)c2ccc(C(C)(C)O)cc2C)CCC3)ccn1 [Example 85, N-((4-(2-Hydroxypropan-2-yl)-2-methylphenyl)sulfonyl)-2-(5-(2-methoxypyridin-4-yl)-2,3-dihydro-1H-inden-4-yl)acetamide] | 12.2 |
| COc1cc(-c2cc(F)cc(C(C)C)c2CC(=O)NS(=O)(=O)c2ccc(C(C)C)cc2)ccn1 [Example 110, 2-(4-Fluoro-2-isopropyl-6-(2-methoxypyridin-4-yl)phenyl)-N-((4-isopropylphenyl)sulfonyl)acetamide] | 6.72 |
